Results published in patent US12692478B2, “Populations of enriched regulatory T cells and methods for producing same” (Cellenkos Inc., priority 2021, dated 2026).

What was measured:
[1] = test system: graft versus host disease (GVHD); details: mouse, in vivo
Protocol: FIG. 33 depicts a schematic for treatment of a xenogeneic mouse graft versus host disease (GVHD) model with a ruxolitinib and activated Treg cells regimen. PBMC=peripheral blood mononuclear cells.
A xenogeneic mouse graft versus host disease (GVHD) model was treated with a ruxolitinib and activated CB Treg cells regimen, as depicted in FIG. 33. NSG mice underwent sublethal irradiation on day −1 followed by injection of 1×10^7 donor peripheral blood (PB) mononuclear cells (MNCs) on day 0. Oral ruxolitinib at 1 mg daily was fed continuously to the mice in the presence or absence of 1×10^7 CB Treg cells, tagged with CellTrace™ Violet dye (ThermoFisher), administered on days +4, +7, +11, +18. Mice were followed every other day for weight, GVHD score and survival. Serial blood draws were performed to analyze for cell compartment and cytokine assays.

SLE-PBMC = experiment: IFN-gamma release by pathogenic lupus cells (SLE-PBMC); type: cell-based, human; details: control, non-specific inflammatory stimulus
Description: FIG. 32 is a bar graph depicting the amount of interferon (IFN)—gamma released by pathogenic lupus cells in the presence or absence of combinations of (1) activated Treg cells; (2) ruxolitinib; and/or (3) camptothecin. Rux=ruxolitinib. SLE-PBMC=peripheral blood mononuclear cells derived from subjects with systemic lupus erythematosus. D6=Day 6.

Row | Compound | CB Treg persistence [1] | IFNγ secretion from CB Treg cells (SLE-PBMC)
1 | N#CC[C@H](C1CCCC1)n1cc(-c2ncnc3[nH]ccc23)cn1 [ruxolitinib] | improved CB Treg persistence | –
2 | CC[C@@]1(O)C(=O)OCc2c1cc1n(c2=O)Cc2cc3ccccc3nc2-1 [Camptothecin] | – | does not increase
